According to PMC12035797, “Peptidomimetics Activating the Proteasome: A New Perspective for Parkinson’s Treatment” (Journal of Medicinal Chemistry, 2025):

Tests used:
[1] = PAMPA, blood–brain barrier mimic; type: in vitro ADME; settings: 500 μM, 37 °C, 22 h
From the text: In neurodegenerative diseases, proteins prone to aggregation accumulate in the neuronal cells. Therefore, a necessary feature of potential drugs is not only permeability across the cell membrane but also the ability to cross the blood-brain barrier (BBB). To preliminarily investigate this feature, we performed parallel artificial membrane permeation assays (PAMPA) including as positive controls propranolol and Tat47-57, known for their ability to penetrate the blood-brain barrier. Dopamine hydrobromide was included as a negative control. For comparison, we also tested compound 1a, which is devoid of a CPP sequence. […] The PAMPA was performed as previously described.[21] Briefly, a 2% solution of porcine brain lipid membrane (PBL; Avanti Polar Lipids Inc., Alabaster, AL, USA) in anhydrous dodecane was used as a mimic of the blood-brain barrier. Propranolol hydrochloride (Merck, Darmstadt, Germany) and Tat47-57 (synthesized in-house) served as positive controls, while dopamine hydrobromide (Merck, Darmstadt, Germany) was used as a negative control. Stock solutions of the tested compounds and controls were prepared at a concentration of 10 mM in deionized water and then diluted to 500 μM using 0.1 M PBS containing 5% DMSO. The donor-acceptor plate assembly was incubated at 37 °C while being shaken at 250 rpm for 22 h. Absorbance at 290 nm was measured for propranolol using an Infinite […] plate reader (Infinite […] plate reader, Tecan). For the other samples, fluorescence measurements were performed after the compounds were reacted with 0.02% fluorescamine. The rate of passive diffusion was calculated as the linear velocity of permeation (Pe). The data represent an average of three independent biological replicates.

[2] = system: hippocampal neurons containing Lewy body-like pS129-αsyn aggregates; experiment: pS129-α-synuclein aggregates in PFF-treated hippocampal neurons; type: cell-based, mouse; settings: 7 days after PFFs
From the text: Encouraged by the results received, we tested the ability of the modulator-CPP constructs to increase α-synuclein degradation in a cell model using primary mouse neuronal cells. The presence of Lewy-like neurites and Lewy-like bodies containing aggregated α-synuclein with phosphorylated serine 129 (pS129-αsyn) is a characteristic feature of the brains of people with Parkinson’s disease. To mimic these aggregations, we introduced a solution of preformed fibrils (PFFs) to the media of neuronal cells, which led to the induction of α-synuclein phosphorylation and its aggregation in neurons isolated from mouse embryos. PFFs are purified, prion-like fibrils of α-synuclein that are produced by expressing a recombinant monomeric protein in bacteria. Seven days after PFFs are introduced to the cells, large aggregates are visible in the cell soma, often next to the cell nucleus. We added the PFF solution to the hippocampal cells, and after an hour of incubation, we introduced solutions of the activator. After 7 days, we immunostained neuronal cells using a monoclonal antibody against the NeuN protein, which is commonly used in neuronal differentiation studies to assess their functional status. Additionally, we stained the nuclei of all incubated cells with DAPI. […] It is noteworthy that the number of cells in samples with activators was slightly higher (Figure 5), which may indicate neuroprotective properties. […] The main tool for monitoring this process was an antibody against pS129-αsyn. […] The fluorescent microscopy images (Figure 5) show the difference between the amounts of aggregated protein in the control sample and in the samples containing activators at different concentrations.
Cells were isolated from pregnant mouse embryos at E16.0 and plated on precoated with poly-L-lysine wells of 96-well plates (PerkinElmer/Revvity Inc., Waltham, MA, USA) at 25,000 cells/well. The final medium volume was 150 μL/well. Cells were incubated at 37 °C, 5% CO2. […]

In the case of `C[C@@H](O)[C@H](NC(=O)[C@H](Cc1ccccc1)NC(=O)[C@H](Cc1ccc(O)cc1)NC(=O)CN(CCCCN)C(=O)[C@H](CCCNC(=N)N)NC(=O)[C@H](CCCNC(=N)N)NC(=O)[C@H](CCCNC(=N)N)NC(=O)[C@H](CCC(N)=O)NC(=O)[C@H](CCCNC(=N)N)NC(=O)[C@H](CCCNC(=N)N)NC(=O)[C@H](CCCCN)NC(=O)[C@H](CCCCN)NC(=O)[C@@H](N)CCCNC(=N)N)C(=O)NCC(=O)N[C@@H](CO)C(=O)N[C@@H](CCCCN)C(=O)N[C@@H](CC(=O)O)C(=O)N[C@@H](Cc1c[nH]c2ccccc12)C(=O)N[C@@H](CCCNC(=N)N)C(=O)N[C@@H](CO)C(=O)N[C@@H](Cc1ccc(O)cc1)C(=O)N[C@@H](Cc1ccc(O)cc1)C(=O)N[C@@H](CO)C(=O)O` [1f], the “permeability across artificial BBB membrane, PAMPA” value [1] was “had the ability to penetrate the artificial membrane mimicking the BBB”, the “effect on hippocampal cells containing α-synuclein aggregates” value ([2]; 0.5 and 2.5 μM) was “effectively reduced the number of hippocampal cells containing α-synuclein” and the “reduction of the number of aggregates formed” value ([2]; very low concentration) was 50%.
